Data taken from US10550111B2, “Pyrimidine urea compound containing isoxazolines and use thereof” (SHENYANG SINOCHEM AGROCHEMICALS R&D CO., LTD, priority 2014, dated 2020).

Key:
Format in all cases: in vivo
[1] = system: broad-leaf weeds and grass weeds; assay: General screening of herbicidal activity in greenhouse; settings: 1000 g a.i./hm^2;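 also: 0 means no visible effect and 100 means all weeds dead or not emerged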
Protocol: (§1) Determination of herbicidal activity of compounds of the present invention against weeds was carried out by the following procedures:
(§2) Seeds of monocotyledonous and dicotyledonous weeds were sown in nutrition soil in paper pot (7 cm diameter), covered with soil in 1 cm and grown in the greenhouse under good growth conditions (temperature, atmospheric humidity, water supply). The compounds of the present invention as emulsifiable concentrate, were applied in pre-emergence and post-emergence treatment by track sprayer (Engineer Research Ltd., pressure 1.95 kg/cm^2, volume 500 L/hm^2, track speed 1.48 km/h). Pre-emergence treatment was conducted after seeding 24 hours and post-emergence treatment was done when the respective weeds reached predetermined leaf stage (grass weed 2- to 3-leaf stage, broad-leaf weed 2- to 4-leaf stage), the state of growth of the respective weeds were visually observed to determine the growth inhibition rate (%) in accordance with the following evaluation standard.
(§3) Growth inhibition rate (%): 0=no discernible action: 100=all weeds dead or not emerged.

[2] = system: Setaria glauca (L.) Beauv.; assay: Bioassay of herbicidal activity in greenhouse (further screening)
Protocol: as §1, §2, §3

[3] = system: Echinochloa crus-galli (L.) Beauv.; assay: as above
Protocol: as §1, §2, §3

Zinnia elegans Jacq. = assay: as above
Protocol: as §1, §2, §3

[4] = system: Abutilon theophrasti Medic.; assay: as above
Protocol: as §1, §2, §3

Structure (SMILES)	pre-emergence and post-emergence herbicidal activity against broad-leaf weeds and grass weeds [1]	Growth inhibition rate, Post-emergence treatment, Setaria glauca (L.) Beauv. ([2]; dose 37.5 g a.i./hm^2)	Growth inhibition rate, Post-emergence treatment, Setaria glauca (L.) Beauv. ([2]; dose 150 g a.i./hm^2)	Growth inhibition rate, Post-emergence treatment, Setaria glauca (L.) Beauv. ([2]; dose 600 g a.i./hm^2)	Growth inhibition rate, Pre-emergence treatment, Setaria glauca (L.) Beauv. ([2]; dose 37.5 g a.i./hm^2)	Growth inhibition rate, Pre-emergence treatment, Setaria glauca (L.) Beauv. ([2]; dose 150 g a.i./hm^2)	Growth inhibition rate, Pre-emergence treatment, Setaria glauca (L.) Beauv. ([2]; dose 600 g a.i./hm^2)	Growth inhibition rate, Post-emergence treatment, Echinochloa crus-galli (L.) Beauv. ([3]; dose 37.5 g a.i./hm^2)	Growth inhibition rate, Post-emergence treatment, Echinochloa crus-galli (L.) Beauv. ([3]; dose 150 g a.i./hm^2)	Growth inhibition rate, Post-emergence treatment, Echinochloa crus-galli (L.) Beauv. ([3]; dose 600 g a.i./hm^2)	Growth inhibition rate, Pre-emergence treatment, Echinochloa crus-galli (L.) Beauv. ([3]; dose 37.5 g a.i./hm^2)	Growth inhibition rate, Pre-emergence treatment, Echinochloa crus-galli (L.) Beauv. ([3]; dose 150 g a.i./hm^2)	Growth inhibition rate, Pre-emergence treatment, Echinochloa crus-galli (L.) Beauv. ([3]; dose 600 g a.i./hm^2)	Growth inhibition rate, Post-emergence treatment, Zinnia elegans Jacq. (Zinnia elegans Jacq.; dose 37.5 g a.i./hm^2)	Growth inhibition rate, Post-emergence treatment, Zinnia elegans Jacq. (Zinnia elegans Jacq.; dose 150 g a.i./hm^2)	Growth inhibition rate, Post-emergence treatment, Zinnia elegans Jacq. (Zinnia elegans Jacq.; dose 600 g a.i./hm^2)	Growth inhibition rate, Pre-emergence treatment, Zinnia elegans Jacq. (Zinnia elegans Jacq.; dose 37.5 g a.i./hm^2)	Growth inhibition rate, Pre-emergence treatment, Zinnia elegans Jacq. (Zinnia elegans Jacq.; dose 150 g a.i./hm^2)	Growth inhibition rate, Pre-emergence treatment, Zinnia elegans Jacq. (Zinnia elegans Jacq.; dose 600 g a.i./hm^2)	Growth inhibition rate, Post-emergence treatment, Abutilon theophrasti Medic. ([4]; dose 37.5 g a.i./hm^2)	also measured
Cn1c(C(F)(F)F)cc(=O)n(-c2cc(C3=NOC(C)(C(N)=O)C3)c(Cl)cc2F)c1=O (stereo not drawn) [Compound 22]	good	10%	10%	15%	0%	0%	0%	0%	5%	10%	0%	0%	0%	55%	90%	95%	0%	0%	0%	30%	Growth inhibition rate, Post-emergence treatment, Abutilon theophrasti Medic. ([4]; dose 150 g a.i./hm^2): 55%; Growth inhibition rate, Post-emergence treatment, Abutilon theophrasti Medic. ([4]; dose 600 g a.i./hm^2): 100%; Growth inhibition rate, Pre-emergence treatment, Abutilon theophrasti Medic. ([4]; dose 37.5 g a.i./hm^2): 0%; Growth inhibition rate, Pre-emergence treatment, Abutilon theophrasti Medic. ([4]; dose 150 g a.i./hm^2): 0%; Growth inhibition rate, Pre-emergence treatment, Abutilon theophrasti Medic. ([4]; dose 600 g a.i./hm^2): 0%
CCCCOC(=O)C1(C)CC(c2cc(-n3c(=O)cc(C(F)(F)F)n(C)c3=O)c(F)cc2Cl)=NO1 (stereo not drawn) [Compound 8]	good																				Growth inhibition rate, Post-emergence treatment, Setaria glauca (L.) Beauv. ([2]; dose 7.5 g a.i./hm^2): 60%; Growth inhibition rate, Post-emergence treatment, Setaria glauca (L.) Beauv. ([2]; dose 15 g a.i./hm^2): 80%; Growth inhibition rate, Post-emergence treatment, Setaria glauca (L.) Beauv. ([2]; dose 30.0 g a.i./hm^2): 100%; Growth inhibition rate, Post-emergence treatment, Setaria glauca (L.) Beauv. ([2]; dose 60.0 g a.i./hm^2): 100%; Growth inhibition rate, Post-emergence treatment, Setaria glauca (L.) Beauv. ([2]; dose 120.0 g a.i./hm^2): 100%; Growth inhibition rate, Post-emergence treatment, Echinochloa crus-galli (L.) Beauv. ([3]; dose 7.5 g a.i./hm^2): 70%; Growth inhibition rate, Post-emergence treatment, Echinochloa crus-galli (L.) Beauv. ([3]; dose 15 g a.i./hm^2): 95%; Growth inhibition rate, Post-emergence treatment, Echinochloa crus-galli (L.) Beauv. ([3]; dose 30.0 g a.i./hm^2): 100%; Growth inhibition rate, Post-emergence treatment, Echinochloa crus-galli (L.) Beauv. ([3]; dose 60.0 g a.i./hm^2): 100%; Growth inhibition rate, Post-emergence treatment, Echinochloa crus-galli (L.) Beauv. ([3]; dose 120.0 g a.i./hm^2): 100%; Growth inhibition rate, Post-emergence treatment, Zinnia elegans Jacq. (Zinnia elegans Jacq.; dose 7.5 g a.i./hm^2): 90%; Growth inhibition rate, Post-emergence treatment, Zinnia elegans Jacq. (Zinnia elegans Jacq.; dose 15 g a.i./hm^2): 95%; Growth inhibition rate, Post-emergence treatment, Zinnia elegans Jacq. (Zinnia elegans Jacq.; dose 30.0 g a.i./hm^2): 95%; Growth inhibition rate, Post-emergence treatment, Zinnia elegans Jacq. (Zinnia elegans Jacq.; dose 60.0 g a.i./hm^2): 100%; Growth inhibition rate, Post-emergence treatment, Zinnia elegans Jacq. (Zinnia elegans Jacq.; dose 120.0 g a.i./hm^2): 100%; Growth inhibition rate, Post-emergence treatment, Abutilon theophrasti Medic. ([4]; dose 7.5 g a.i./hm^2): 100%; Growth inhibition rate, Post-emergence treatment, Abutilon theophrasti Medic. ([4]; dose 15 g a.i./hm^2): 100%; Growth inhibition rate, Post-emergence treatment, Abutilon theophrasti Medic. ([4]; dose 30.0 g a.i./hm^2): 100%; Growth inhibition rate, Post-emergence treatment, Abutilon theophrasti Medic. ([4]; dose 60.0 g a.i./hm^2): 100%; Growth inhibition rate, Post-emergence treatment, Abutilon theophrasti Medic. ([4]; dose 120.0 g a.i./hm^2): 100%
CCCCOC(=O)C1(C)CC(c2cc(-n3c(=O)cc(C(F)(F)F)n(C)c3=O)ccc2Cl)=NO1 (stereo not drawn) [Compound 286]	good	15%	70%	75%	0%	10%	30%	20%	60%	75%	0%	5%	15%	85%	100%	100%	0%	0%	10%	90%	Growth inhibition rate, Post-emergence treatment, Abutilon theophrasti Medic. ([4]; dose 150 g a.i./hm^2): 100%; Growth inhibition rate, Post-emergence treatment, Abutilon theophrasti Medic. ([4]; dose 600 g a.i./hm^2): 100%; Growth inhibition rate, Pre-emergence treatment, Abutilon theophrasti Medic. ([4]; dose 37.5 g a.i./hm^2): 0%; Growth inhibition rate, Pre-emergence treatment, Abutilon theophrasti Medic. ([4]; dose 150 g a.i./hm^2): 0%; Growth inhibition rate, Pre-emergence treatment, Abutilon theophrasti Medic. ([4]; dose 600 g a.i./hm^2): 15%
Cn1c(C(F)(F)F)cc(=O)n(-c2cc(C3=NOC(C)(C(=O)OCC(F)(F)F)C3)c(Cl)cc2F)c1=O (stereo not drawn) [Compound 396]	good																				Growth inhibition rate, Post-emergence treatment, Setaria glauca (L.) Beauv. ([2]; dose 7.5 g a.i./hm^2): 25%; Growth inhibition rate, Post-emergence treatment, Setaria glauca (L.) Beauv. ([2]; dose 15 g a.i./hm^2): 55%; Growth inhibition rate, Post-emergence treatment, Setaria glauca (L.) Beauv. ([2]; dose 30.0 g a.i./hm^2): 85%; Growth inhibition rate, Post-emergence treatment, Setaria glauca (L.) Beauv. ([2]; dose 60.0 g a.i./hm^2): 98%; Growth inhibition rate, Post-emergence treatment, Setaria glauca (L.) Beauv. ([2]; dose 120.0 g a.i./hm^2): 100%; Growth inhibition rate, Post-emergence treatment, Echinochloa crus-galli (L.) Beauv. ([3]; dose 7.5 g a.i./hm^2): 20%; Growth inhibition rate, Post-emergence treatment, Echinochloa crus-galli (L.) Beauv. ([3]; dose 15 g a.i./hm^2): 55%; Growth inhibition rate, Post-emergence treatment, Echinochloa crus-galli (L.) Beauv. ([3]; dose 30.0 g a.i./hm^2): 95%; Growth inhibition rate, Post-emergence treatment, Echinochloa crus-galli (L.) Beauv. ([3]; dose 60.0 g a.i./hm^2): 100%; Growth inhibition rate, Post-emergence treatment, Echinochloa crus-galli (L.) Beauv. ([3]; dose 120.0 g a.i./hm^2): 100%; Growth inhibition rate, Post-emergence treatment, Zinnia elegans Jacq. (Zinnia elegans Jacq.; dose 7.5 g a.i./hm^2): 30%; Growth inhibition rate, Post-emergence treatment, Zinnia elegans Jacq. (Zinnia elegans Jacq.; dose 15 g a.i./hm^2): 60%; Growth inhibition rate, Post-emergence treatment, Zinnia elegans Jacq. (Zinnia elegans Jacq.; dose 30.0 g a.i./hm^2): 75%; Growth inhibition rate, Post-emergence treatment, Zinnia elegans Jacq. (Zinnia elegans Jacq.; dose 60.0 g a.i./hm^2): 100%; Growth inhibition rate, Post-emergence treatment, Zinnia elegans Jacq. (Zinnia elegans Jacq.; dose 120.0 g a.i./hm^2): 100%; Growth inhibition rate, Post-emergence treatment, Abutilon theophrasti Medic. ([4]; dose 7.5 g a.i./hm^2): 98%; Growth inhibition rate, Post-emergence treatment, Abutilon theophrasti Medic. ([4]; dose 15 g a.i./hm^2): 100%; Growth inhibition rate, Post-emergence treatment, Abutilon theophrasti Medic. ([4]; dose 30.0 g a.i./hm^2): 100%; Growth inhibition rate, Post-emergence treatment, Abutilon theophrasti Medic. ([4]; dose 60.0 g a.i./hm^2): 100%; Growth inhibition rate, Post-emergence treatment, Abutilon theophrasti Medic. ([4]; dose 120.0 g a.i./hm^2): 100%
Cn1c(C(F)(F)F)cc(=O)n(-c2cc(C3=NOC(C)(COC(=O)CCl)C3)c(Cl)cc2F)c1=O (stereo not drawn) [Compound 50]	good	15%	65%	98%	0%	30%	90%	10%	30%	80%	0%	10%	80%	98%	100%	100%	0%	30%	90%	100%	Growth inhibition rate, Post-emergence treatment, Abutilon theophrasti Medic. ([4]; dose 150 g a.i./hm^2): 100%; Growth inhibition rate, Post-emergence treatment, Abutilon theophrasti Medic. ([4]; dose 600 g a.i./hm^2): 100%; Growth inhibition rate, Pre-emergence treatment, Abutilon theophrasti Medic. ([4]; dose 37.5 g a.i./hm^2): 0%; Growth inhibition rate, Pre-emergence treatment, Abutilon theophrasti Medic. ([4]; dose 150 g a.i./hm^2): 35%; Growth inhibition rate, Pre-emergence treatment, Abutilon theophrasti Medic. ([4]; dose 600 g a.i./hm^2): 100%
